Test results taken from ChEMBL document CHEMBL1201862, “PubChem BioAssay data set” (2004).
The source made the active and inactive calls.

Experiments:
NADPH oxidase 1 [1] = molecular target: T1, NADPH oxidase 1 (Homo sapiens, UniProt Q9Y5S8); assay: Late-stage luminescence-based cell-based dose response assay to identify inhibitors of NADPH oxidase 1 (NOX1): Synthesized analogs 2.; type: functional
T1 sequence (Q9Y5S8 whole entry): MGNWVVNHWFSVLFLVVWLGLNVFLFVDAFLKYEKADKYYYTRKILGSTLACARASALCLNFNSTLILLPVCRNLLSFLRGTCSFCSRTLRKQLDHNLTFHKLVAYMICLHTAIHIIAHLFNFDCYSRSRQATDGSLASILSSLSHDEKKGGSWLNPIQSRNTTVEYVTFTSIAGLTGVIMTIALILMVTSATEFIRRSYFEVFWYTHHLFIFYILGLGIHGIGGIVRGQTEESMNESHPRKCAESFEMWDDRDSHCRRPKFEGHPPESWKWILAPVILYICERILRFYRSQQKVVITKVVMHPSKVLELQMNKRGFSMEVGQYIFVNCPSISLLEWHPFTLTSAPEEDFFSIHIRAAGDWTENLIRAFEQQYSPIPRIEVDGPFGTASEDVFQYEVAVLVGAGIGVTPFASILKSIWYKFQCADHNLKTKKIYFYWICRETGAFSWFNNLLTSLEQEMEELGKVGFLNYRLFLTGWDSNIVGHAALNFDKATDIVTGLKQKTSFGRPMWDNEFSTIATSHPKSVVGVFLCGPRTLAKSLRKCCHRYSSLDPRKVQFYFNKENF

Genome polyprotein = Genome polyprotein (Hepatitis C virus, UniProt Q2Q167); assay: disruption of hepatitis C core self-association – biochemical, TR-FRET, dose response (AID 2159); set-up: species or system Hepacivirus hominis;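 note: blocks dimerization of HCV core protein measured by TR-FRET between tagged core106 pairs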
Sequence of Genome polyprotein (Q2Q167 whole entry): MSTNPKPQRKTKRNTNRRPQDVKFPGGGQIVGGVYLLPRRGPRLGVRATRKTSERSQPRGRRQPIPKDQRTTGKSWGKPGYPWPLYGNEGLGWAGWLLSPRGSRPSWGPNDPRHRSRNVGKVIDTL

[2] = viability loss in human Jurkat cells – cell-based, luminescence, cytotoxicity control for P. falciparum gametocyte viability project, dose response (AID 1117277); type: functional;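 note: potency reflects loss of cellular ATP meaning fewer viable cells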
[3] = viability inhibitors of stage V gametocytes – luminescence, dose response (AID 1117278); type: functional, cell-based;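 note: gametocytes exposed to compound for 24 hours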
[4] = molecular target: Induced myeloid leukemia cell differentiation protein Mcl-1 (Homo sapiens, UniProt Q07820); type: functional
Sequence of Induced myeloid leukemia cell differentiation protein Mcl-1 (Q07820 whole entry): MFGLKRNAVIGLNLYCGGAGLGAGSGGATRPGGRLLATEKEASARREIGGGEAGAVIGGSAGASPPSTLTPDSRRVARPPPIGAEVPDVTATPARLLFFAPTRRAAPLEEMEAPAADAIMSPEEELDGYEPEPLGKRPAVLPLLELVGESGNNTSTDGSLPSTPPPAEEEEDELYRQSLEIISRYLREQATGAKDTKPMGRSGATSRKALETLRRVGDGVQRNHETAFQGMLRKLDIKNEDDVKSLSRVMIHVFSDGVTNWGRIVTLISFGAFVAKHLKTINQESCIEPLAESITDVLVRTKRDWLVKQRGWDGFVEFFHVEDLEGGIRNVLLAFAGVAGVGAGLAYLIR

[5] = Luminescence Cell-Based Dose Response HTS to Identify Activators of Luciferase Translation or Activity in H4 […] Cells. [Related pubchem assays: 1829 (Project Summary), 1814 (Primary HTS)]; type: functional
[6] = Luminescence Cell-Based Dose Response to Identify Activators of 5'UTR Stem-Loop Driven Prion Protein mRNA Translation in H4-C Neuroglioblastoma Cells. [Related pubchem assays: 1829 (Project Summary), 1814 (Primary HTS)]; type: functional
H4 = assay: Luminescence Cell-Based Dose Response HTS to Identify Activators of 5'UTR Stem-Loop Driven Prion Protein mRNA Translation in H4 Neuroglioblastoma Cells. [Related pubchem assays: 1829 (Project Summary), 1814 (Primary HTS)]; type: functional; conditions: Homo sapiens
[7] = Luminescence Cell-Based Dose Confirmation to Identify Activators of 5'UTR Stem-Loop Driven Alpha-Synuclein mRNA Translation in H4 Neuroglioblastoma Cells. [Related pubchem assays: 1829 (Project Summary), 1814 (Primary HTS)]; type: functional
[8] = Luminescence Cell-Based Dose Response to Identify Activators of Luciferase Translation or Activity in H4-C Neuroglioblastoma Cells. [Related pubchem assays: 1829 (Project Summary), 1814 (Primary HTS)]; type: functional
Streptococcus = assay: GAS UMAA2166 growth inhibition – luminescence, BacTiterGlo, counter-screen for streptokinase expression inhibitor project, dose response (AID 1915); type: functional, organism-based;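 note: potency for reduction of bacterial viability or growth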
[9] = test system: Streptococcus sp. 'group A'; assay: Streptococcus pyogenes SK(-)GAS viability under kanamycin – luminescence, BacTiterGlo, confirmation, counter-screen for streptokinase expression inhibitor project, dose response (AID 1900); type: functional, organism-based
Streptokinase A = molecular target: T2, Streptokinase A (Streptococcus pyogenes serotype M1, UniProt P10520); assay: viability-normalized secreted streptokinase activity reduction – plasminogen activation absorbance, OD405, dose response (AID 1914); type: functional, Streptococcus pyogenes M1 GAS;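 note: secreted streptokinase activity via plasminogen activation per viability signal from cell pellet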
T2 sequence (P10520 whole entry): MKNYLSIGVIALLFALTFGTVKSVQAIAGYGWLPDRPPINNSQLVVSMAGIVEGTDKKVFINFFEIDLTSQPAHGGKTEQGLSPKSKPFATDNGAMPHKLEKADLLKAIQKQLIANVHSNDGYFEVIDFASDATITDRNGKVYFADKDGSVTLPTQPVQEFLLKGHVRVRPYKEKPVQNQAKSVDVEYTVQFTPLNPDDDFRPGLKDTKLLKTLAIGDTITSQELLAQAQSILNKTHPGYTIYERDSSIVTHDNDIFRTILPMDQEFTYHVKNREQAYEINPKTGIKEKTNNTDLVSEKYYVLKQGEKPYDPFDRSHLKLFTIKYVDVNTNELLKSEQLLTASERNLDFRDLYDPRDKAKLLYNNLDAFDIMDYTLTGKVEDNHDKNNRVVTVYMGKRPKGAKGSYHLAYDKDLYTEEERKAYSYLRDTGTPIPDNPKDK

[10] = Luminescent dose response cell-based high throughput screening assay for inhibitors of the Janus kinase 2 mutant JAK2V617F. [Related pubchem assays: 1446 (Primary screen.), 1521 (Confirmation assay.), 1486 (Counter screen.)]; type: functional
NADPH oxidase 1 [11] = molecular target: T1, NADPH oxidase 1; assay: Late-stage luminescence-based cell-based dose response assay to identify inhibitors of NADPH oxidase 1 (NOX1): Purchased analogs 2.; type: functional
[12] = M. tuberculosis H37Rv growth inhibitors, H37Rv strain (AID 1626); type: functional
[13] = molecular target: T3, Corticotropin-releasing factor receptor 2/Corticotropin-releasing factor-binding protein (Homo sapiens, UniProt P24387+Q13324); assay: activators of CRF receptor 2 with binding protein – uHTS hits, confirmation (AID 602473); type: functional; conditions: read-out: EC50_Mean
T3 sequence (Q13324 whole entry): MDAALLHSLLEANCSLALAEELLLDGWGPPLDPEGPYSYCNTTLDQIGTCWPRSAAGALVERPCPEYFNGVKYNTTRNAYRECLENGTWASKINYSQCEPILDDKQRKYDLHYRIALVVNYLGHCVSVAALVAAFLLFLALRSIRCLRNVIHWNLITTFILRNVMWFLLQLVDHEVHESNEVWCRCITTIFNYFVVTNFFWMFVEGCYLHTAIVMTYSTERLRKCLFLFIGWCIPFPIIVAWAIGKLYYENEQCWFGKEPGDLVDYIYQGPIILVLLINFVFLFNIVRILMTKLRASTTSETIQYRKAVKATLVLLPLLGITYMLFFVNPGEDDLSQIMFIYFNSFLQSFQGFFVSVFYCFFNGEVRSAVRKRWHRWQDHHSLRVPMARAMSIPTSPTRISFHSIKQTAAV
T3 sequence (P24387 whole entry): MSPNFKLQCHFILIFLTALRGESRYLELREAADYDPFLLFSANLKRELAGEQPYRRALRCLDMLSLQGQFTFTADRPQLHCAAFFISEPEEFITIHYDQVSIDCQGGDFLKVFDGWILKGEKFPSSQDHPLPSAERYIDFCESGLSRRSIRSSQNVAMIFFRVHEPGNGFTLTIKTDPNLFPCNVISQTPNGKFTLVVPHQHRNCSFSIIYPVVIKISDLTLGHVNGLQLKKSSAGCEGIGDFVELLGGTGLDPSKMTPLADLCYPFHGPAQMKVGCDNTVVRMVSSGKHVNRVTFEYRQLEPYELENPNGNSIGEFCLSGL

cells = type: functional
[14] = M. tuberculosis growth inhibition, HTS (AID 449762); type: functional
[15] = molecular target: Voltage-gated inwardly rectifying potassium channel KCNH2 (Homo sapiens, UniProt Q12809); assay: concentration-dependent hERG rescue from blockers – cell-based, thallium flux, dose response (AID 2121); type: ADME
Sequence of Voltage-gated inwardly rectifying potassium channel KCNH2 (Q12809 whole entry): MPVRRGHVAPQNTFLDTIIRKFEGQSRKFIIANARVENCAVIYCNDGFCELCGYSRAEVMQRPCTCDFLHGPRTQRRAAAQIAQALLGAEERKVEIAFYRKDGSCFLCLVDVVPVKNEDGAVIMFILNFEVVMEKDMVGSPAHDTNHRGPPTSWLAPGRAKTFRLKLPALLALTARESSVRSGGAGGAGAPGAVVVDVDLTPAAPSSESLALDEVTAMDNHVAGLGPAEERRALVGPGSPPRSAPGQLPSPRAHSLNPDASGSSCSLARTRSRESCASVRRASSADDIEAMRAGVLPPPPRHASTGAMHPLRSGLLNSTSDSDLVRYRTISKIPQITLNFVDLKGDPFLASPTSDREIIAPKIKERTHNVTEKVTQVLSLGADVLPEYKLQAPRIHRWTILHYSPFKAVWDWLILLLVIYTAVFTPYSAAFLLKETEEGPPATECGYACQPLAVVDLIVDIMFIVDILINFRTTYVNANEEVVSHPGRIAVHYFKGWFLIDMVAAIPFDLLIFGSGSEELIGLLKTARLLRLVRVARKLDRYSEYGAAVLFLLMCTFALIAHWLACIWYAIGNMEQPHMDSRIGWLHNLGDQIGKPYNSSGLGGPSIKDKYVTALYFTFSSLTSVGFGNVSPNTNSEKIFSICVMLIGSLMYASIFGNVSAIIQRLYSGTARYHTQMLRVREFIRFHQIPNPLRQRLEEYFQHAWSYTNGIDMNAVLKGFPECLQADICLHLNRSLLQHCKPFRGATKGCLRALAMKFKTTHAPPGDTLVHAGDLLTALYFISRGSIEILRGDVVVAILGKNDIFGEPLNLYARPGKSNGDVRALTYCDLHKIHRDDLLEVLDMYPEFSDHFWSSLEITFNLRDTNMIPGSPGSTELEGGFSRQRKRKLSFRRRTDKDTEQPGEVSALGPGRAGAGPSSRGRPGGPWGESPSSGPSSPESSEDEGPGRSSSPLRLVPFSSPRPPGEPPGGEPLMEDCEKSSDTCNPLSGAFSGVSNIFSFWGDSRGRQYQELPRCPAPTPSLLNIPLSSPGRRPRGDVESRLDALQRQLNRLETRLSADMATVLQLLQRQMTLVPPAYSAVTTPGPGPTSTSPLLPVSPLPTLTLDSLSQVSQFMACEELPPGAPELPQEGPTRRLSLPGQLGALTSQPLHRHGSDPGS

## O=C(c1ccccc1)c1ccccc1N1c2ccccc2Sc2ccccc21
NADPH oxidase 1 [1]
  IC50: > 50 µM (not active)

## CCN(CC)S(=O)(=O)c1ccc(N2CCOCC2)c(NC(=O)c2c3c(nc4ccccc24)CCC3)c1
Genome polyprotein
  IC50: > 49.8 µM (not active)
[2]
  IC50: > 83.3 µM (inactive)
[3]
  IC50: > 109 µM (inactive)
[4]
  IC50: 5.07 µM (active)

## S=C(c1ccc(-c2ccc(Br)cc2)o1)N1CCOCC1
[5]
  EC50: < 0.1 µM (active)
[6]
  EC50: 0.507 µM (active)
H4
  EC50: 18.6 µM (inconclusive)
[7]
  EC50: 0.251 µM (active)
[8]
  EC50: 0.378 µM (active)

## O=C(Oc1cccc2c(O)cccc12)c1ccccc1
Streptococcus
  EC50: > 150 µM (not active)
[9]
  EC50: 29 µM (active)
Streptokinase A
  EC50: 63.7 µM (active)
[10]
  IC50: 7.47 µM (active)

## Cc1cc(Cl)ccc1NC(=S)NNC(=S)Nc1ccc(Cl)cc1C
NADPH oxidase 1 [11]
  IC50: 3.51 µM (active)

## CCOC(=O)c1ccc(NCc2ccc(N(C)C)cc2)cc1
[12]
  IC50: > 100 µM (active)

## CCOc1ccc2nc(/N=C/c3nc(-c4ccccc4)oc3O)sc2c1
[13]
  EC50: 14.6 µM (active)
cells
  IC50: 3.76 µM (active)
[14]
  IC50: > 100 µM (active)
[15]
  EC50: 1.69 µM (active)
